Molecules are shown by their SMILES.

The text below walks through data of patent US11608335B2, “Somatostatin modulators and uses thereof” (CRINETICS PHARMACEUTICALS, INC., priority 2018, dated 2023).

The target of one experiment is human somatostatin receptor subtype 5 (Homo sapiens, UniProt P35346). The experiment in a line: cAMP assay for SST5R (inhibition of cAMP via human SST5 receptor).
Chain of human somatostatin receptor subtype 5 (P35346 whole entry): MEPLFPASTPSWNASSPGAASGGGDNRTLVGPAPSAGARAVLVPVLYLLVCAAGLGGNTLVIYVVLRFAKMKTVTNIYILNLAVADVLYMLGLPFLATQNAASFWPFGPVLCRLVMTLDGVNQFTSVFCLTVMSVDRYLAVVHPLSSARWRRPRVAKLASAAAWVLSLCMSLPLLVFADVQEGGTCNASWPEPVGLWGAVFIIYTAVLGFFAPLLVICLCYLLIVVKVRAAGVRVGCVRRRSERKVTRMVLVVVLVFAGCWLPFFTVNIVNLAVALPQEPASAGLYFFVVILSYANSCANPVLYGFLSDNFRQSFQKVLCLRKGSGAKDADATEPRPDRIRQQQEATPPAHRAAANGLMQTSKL
Conditions: not given
The EC50 is the concentration giving half of the maximal effect. A low value points to an effect from little substance. For the molecule `CC(N)C1CN(c2c(-c3nc4cc(F)cc(F)c4[nH]3)cncc2-c2cccc(F)c2O)C1` (stereo not shown) [Compound 1-75, 2-{4-[3-(1-aminoethyl)azetidin-1-yl]-5-(4,6-difluoro-1H-1,3-benzodiazol-2-yl)pyridin-3-yl}-6-fluorophenol], the EC50 fell in the range of 10 to 100 nM.

`Cc1cccc(-c2cncc(-c3nc4cc(F)cc(F)c4[nH]3)c2N2CC(C(C)N)C2)c1F` (stereo not shown) [Compound 1-76, 1-{1-[3-(4,6-difluoro-1H-1,3-benzodiazol-2-yl)-5-(2-fluoro-3-methylphenyl)pyridin-4-yl]azetidin-3-yl}ethan-1-amine] showed an EC50 below 10 nM.

`N#Cc1cc(Cl)cc(-c2cncc(-c3nc4cccc(F)c4[nH]3)c2N2CC[C@H](N)C2)c1` [Compound 2-5, 3-{4-[(3S)-3-aminopyrrolidin-1-yl]-5-(4-fluoro-1H-1,3-benzodiazol-2-yl)pyridin-3-yl}-5-chlorobenzonitrile] displayed an EC50 of 10 to 100 nM.

The molecule `CON=Cc1cc(F)cc(-c2cncc(-c3nc4c(F)cccc4[nH]3)c2N2CC[C@H](N)C2)c1` [Compound 2-9, (3S)-1-[3-(4-fluoro-1H-1,3-benzodiazol-2-yl)-5-{3-fluoro-5-[(methoxyimino)methyl]phenyl}pyridin-4-yl]pyrrolidin-3-amine] returned an EC50 of 10 to 100 nM.

`CO/N=C/c1cccc(-c2cncc(-c3nc4cccc(F)c4[nH]3)c2N2CC[C@H](N)C2)c1` [Compound 2-12, (3S)-1-[3-(4-fluoro-1H-1,3-benzodiazol-2-yl)-5-{3-[(methoxyimino)methyl]phenyl}pyridin-4-yl]pyrrolidin-3-amine] showed an EC50 of 10 to 100 nM.

The molecule `CN(C)c1ccc(-c2cncc(-c3nc4cccc(F)c4[nH]3)c2N2CCC(C)(N)C2)cn1` (stereo not shown) [Compound 2-14, 4′-(3-amino-3-methylpyrrolidin-1-yl)-5′-(4-fluoro-1H-1,3-benzodiazol-2-yl)-N,N-dimethyl-[3,3′-bipyridin]-6-amine] displayed an EC50 of 100 to 1000 nM.

Regarding `CC1(N)CCN(c2c(-c3ccnc(N)c3)cncc2-c2nc3cccc(F)c3[nH]2)C1` (stereo not shown) [Compound 2-15, 4-(3-amino-3-methylpyrrolidin-1-yl)-5-(4-fluoro-1H-1,3-benzodiazol-2-yl)-[3,4′-bipyridin]-2′-amine], the EC50 fell in the range of 10 to 100 nM.

Take `CC1(N)CCN(c2c(-c3cccc(-n4cccn4)c3)cncc2-c2nc3cccc(F)c3[nH]2)C1` (stereo not shown) [Compound 2-16, 1-[3-(4-fluoro-1H-1,3-benzodiazol-2-yl)-5-[3-(1H-pyrazol-1-yl)phenyl]pyridin-4-yl]-3-methylpyrrolidin-3-amine]: the EC50 was 10 to 100 nM.

`CC1(N)CCN(c2c(-c3cccc(N4CCOC4=O)c3)cncc2-c2nc3cccc(F)c3[nH]2)C1` (stereo not shown) [Compound 2-17, 3-{3-[4-(3-amino-3-methylpyrrolidin-1-yl)-5-(4-fluoro-1H-1,3-benzodiazol-2-yl)pyridin-3-yl]phenyl}-1,3-oxazolidin-2-one]: the EC50 was 10 to 100 nM.

Molecule `CNC(=O)c1cccc(-c2cncc(-c3nc4cccc(F)c4[nH]3)c2N2CCC(C)(N)C2)c1` (stereo not shown) [Compound 2-19, 3-[4-(3-amino-3-methylpyrrolidin-1-yl)-5-(4-fluoro-1H-1,3-benzodiazol-2-yl)pyridin-3-yl]-N-methylbenzamide] showed an EC50 of 10 to 100 nM.

For the molecule `N[C@H]1CCN(c2c(-c3cc(O)cc(F)c3)cncc2-c2nc3cccc(F)c3[nH]2)C1` [Compound 2-25, 3-{4-[(3S)-3-aminopyrrolidin-1-yl]-5-(4-fluoro-1H-1,3-benzodiazol-2-yl)pyridin-3-yl}-5-fluorophenol], the EC50 lay in the range of 10 to 100 nM.

With `CC1(N)CCN(c2c(-c3ccc4[nH]ccc4c3)cncc2-c2nc3cccc(F)c3[nH]2)C1` (stereo not shown) [Compound 2-30, 1-[3-(4-fluoro-1H-1,3-benzodiazol-2-yl)-5-(1H-indol-5-yl)pyridin-4-yl]-3-methylpyrrolidin-3-amine], the EC50 was 100 to 1000 nM.

Molecule `CN(C)C(=O)c1cccc(-c2cncc(-c3nc4cccc(F)c4[nH]3)c2N2CCC(C)(N)C2)c1` (stereo not shown) [Compound 2-31, 3-[4-(3-amino-3-methylpyrrolidin-1-yl)-5-(4-fluoro-1H-1,3-benzodiazol-2-yl)pyridin-3-yl]-N,N-dimethylbenzamide] registered an EC50 of 100 to 1000 nM.

For the molecule `N#Cc1c(F)ccc(-c2cncc(-c3nc4cccc(F)c4[nH]3)c2N2CC[C@H](N)C2)c1F` [Compound 2-32, 3-{4-[(3S)-3-aminopyrrolidin-1-yl]-5-(4-fluoro-1H-1,3-benzodiazol-2-yl)pyridin-3-yl}-2,6-difluorobenzonitrile], the EC50 is below 10 nM.

Turning to `N#Cc1cccc(-c2cncc(-c3nc4c(F)cccc4[nH]3)c2N2CC(N)C(C(F)(F)F)C2)c1` (stereo not shown) [Compound 2-33, 3-{4-[3-amino-4-(trifluoromethyl)pyrrolidin-1-yl]-5-(4-fluoro-1H-1,3-benzodiazol-2-yl)pyridin-3-yl}benzonitrile], the EC50 lay in the range of 100 to 1000 nM.

`N#Cc1ccc(-c2cncc(-c3nc4c(F)cccc4[nH]3)c2N2CC[C@H](N)C2)cc1F` [Compound 2-35, 4-{4-[(3S)-3-aminopyrrolidin-1-yl]-5-(4-fluoro-1H-1,3-benzodiazol-2-yl)pyridin-3-yl}-2-fluorobenzonitrile] displayed an EC50 of 10 to 100 nM.

Regarding `N#Cc1cc(-c2cncc(-c3nc4cccc(F)c4[nH]3)c2N2CC[C@H](N)C2)ccc1O` [Compound 2-36, 5-{4-[(3S)-3-aminopyrrolidin-1-yl]-5-(4-fluoro-1H-1,3-benzodiazol-2-yl)pyridin-3-yl}-2-hydroxybenzonitrile], the 50% effective concentration (EC50) lay within 100 to 1000 nM.

`N#Cc1c(F)cccc1-c1cncc(-c2nc3c(F)ccc(F)c3[nH]2)c1N1CC[C@H](N)C1` [Compound 2-40, 2-{4-[(3S)-3-aminopyrrolidin-1-yl]-5-(4,7-difluoro-1H-1,3-benzodiazol-2-yl)pyridin-3-yl}-6-fluorobenzonitrile]: the EC50 was 10 to 100 nM.

Regarding `N#Cc1cccc(-c2cncc(-c3nc4c(F)c(F)c(F)c(F)c4[nH]3)c2N2CC[C@H](N)C2)c1` [Compound 2-41, 3-{4-[(3S)-3-aminopyrrolidin-1-yl]-5-(4,5,6,7-tetrafluoro-1H-1,3-benzodiazol-2-yl)pyridin-3-yl}benzonitrile], the EC50 was in the range of 10 to 100 nM.

In the case of `N#Cc1ccc(-c2cncc(-c3nc4cccc(F)c4[nH]3)c2N2CC[C@H](N)C2)cc1` [Compound 2-42, 4-{4-[(3S)-3-aminopyrrolidin-1-yl]-5-(4-fluoro-1H-1,3-benzodiazol-2-yl)pyridin-3-yl}benzonitrile], the EC50 fell in the range of 100 to 1000 nM.

Molecule `N#Cc1c(Cl)cccc1-c1cncc(-c2nc3cccc(F)c3[nH]2)c1N1CC[C@H](N)C1` [Compound 2-47, 2-{4-[(3S)-3-aminopyrrolidin-1-yl]-5-(4-fluoro-1H-1,3-benzodiazol-2-yl)pyridin-3-yl}-6-chlorobenzonitrile] showed a concentration for a half-maximal effect (EC50) below 10 nM.

For the molecule `N#Cc1cc(-c2cncc(-c3nc4c(F)ccc(F)c4[nH]3)c2N2CC[C@H](N)C2)ccc1C(F)(F)F` [Compound 2-48, 5-{4-[(3S)-3-aminopyrrolidin-1-yl]-5-(4,7-difluoro-1H-1,3-benzodiazol-2-yl)pyridin-3-yl}-2-(trifluoromethyl)benzonitrile], the EC50 fell in the range of 10 to 100 nM.

`Cc1ccnc2nc(-c3cncc(-c4ccc(F)c(C#N)c4)c3N3CC[C@H](N)C3)[nH]c12` [Compound 2-50, 5-{4-[(3S)-3-aminopyrrolidin-1-yl]-5-{7-methyl-1H-imidazo[4,5-b]pyridin-2-yl}pyridin-3-yl}-2-fluorobenzonitrile]: the EC50 is 10 to 100 nM.

Consider `CC1(N)CCN(c2c(-c3cccc(-n4ccnc4)c3)cncc2-c2nc3cccc(F)c3[nH]2)C1` (stereo not shown) [Compound 2-53, 1-[3-(4-fluoro-1H-1,3-benzodiazol-2-yl)-5-[3-(1H-imidazol-1-yl)phenyl]pyridin-4-yl]-3-methylpyrrolidin-3-amine], for which the EC50 fell in the range of 10 to 100 nM.

`CS(=O)(=O)c1cccc(-c2cncc(-c3nc4cccc(F)c4[nH]3)c2N2CC[C@H](N)C2)c1` [Compound 2-58, (3S)-1-[3-(4-fluoro-1H-1,3-benzodiazol-2-yl)-5-(3-methanesulfonylphenyl)pyridin-4-yl]pyrrolidin-3-amine] showed an EC50 of 10 to 100 nM.

As for `N[C@H]1CCN(c2c(-c3ccc4c(c3)OCC4)cncc2-c2nc3cccc(F)c3[nH]2)C1` [Compound 2-59, (3S)-1-[3-(2,3-dihydro-1-benzofuran-6-yl)-5-(4-fluoro-1H-1,3-benzodiazol-2-yl)pyridin-4-yl]pyrrolidin-3-amine], the EC50 was in the range of 10 to 100 nM.

With `NC(=O)c1cc(-c2cncc(-c3nc4c(F)ccc(F)c4[nH]3)c2N2CC[C@H](N)C2)ccc1F` [Compound 2-61, 5-{4-[(3S)-3-aminopyrrolidin-1-yl]-5-(4,7-difluoro-1H-1,3-benzodiazol-2-yl)pyridin-3-yl}-2-fluorobenzamide], the EC50 was 10 to 100 nM.

`NC(=O)c1cccc(-c2cncc(-c3nc4cccc(F)c4[nH]3)c2N2CCC(N)(C(F)(F)F)C2)c1` (stereo not shown) [Compound 2-64, 3-{4-[3-amino-3-(trifluoromethyl)pyrrolidin-1-yl]-5-(4-fluoro-1H-1,3-benzodiazol-2-yl)pyridin-3-yl}benzamide]: the EC50 was above 1000 nM.

Molecule `N#Cc1cc(F)cc(-c2cncc(-c3nc4cccc(F)c4[nH]3)c2N2C[C@@H](N)C[C@@H]2CO)c1` [Compound 2-66, 3-{4-[(2R,4S)-4-amino-2-(hydroxymethyl)pyrrolidin-1-yl]-5-(4-fluoro-1H-1,3-benzodiazol-2-yl)pyridin-3-yl}-5-fluorobenzonitrile] came in with an EC50 of 100 to 1000 nM.

As for `NC(=O)c1cc(-c2cncc(-c3nc4cccc(F)c4[nH]3)c2N2CC[C@H](N)C2)ccc1F` [Compound 2-71, 5-{4-[(3S)-3-aminopyrrolidin-1-yl]-5-(4-fluoro-1H-1,3-benzodiazol-2-yl)pyridin-3-yl}-2-fluorobenzamide], the EC50 was 10 to 100 nM.

Staying with this experiment, now noted: SST5 over SST2, class symbols.
Consider `COc1cccc(-c2cncc(-c3nc4cccc(F)c4[nH]3)c2N2CCC(C)(N)C2)c1` (stereo not shown) [Compound 2-11, 1-[3-(4-fluoro-1H-1,3-benzodiazol-2-yl)-5-(3-methoxyphenyl)pyridin-4-yl]-3-methylpyrrolidin-3-amine], for which the “Fold selectivity for SST5 vs SST2” value is listed as “+++ (+++=≥500)”.
